Publication PMC11811597, “Phenomics‐Based Discovery of Novel Orthosteric Choline Kinase Inhibitors” (Angewandte Chemie (International Ed. in English), 2025)
“Also recorded” adds a separate entry of the source. Where two headings read alike, the source gives them in different places.

What was measured:
[1] = tested on: choline metabolism in MCF7 cells; experiment: NMR choline metabolite analysis; type: cell-based, human; settings: for extracellular choline uptake: dose-dependent
Description: NMR Choline Metabolite Analysis
Sample preparation for the quantification of metabolites by nuclear magnetic resonance (NMR) spectroscopy was performed as described previously.[13] Briefly, 0.3 mL of cell culture medium (conditioned medium) was collected from each sample and mixed with 2 volumes of pre-chilled methanol (< -70 °C), vortexed for 30 s and placed on dry ice for at least 30 min. Following centrifugation for 20 min at 18100 × g and 0 °C, the supernatant extract of culture medium was dried and stored until NMR analysis. The remaining culture medium from each sample was discarded and cells were washed once with PBS (37 °C), and quenched with liquid nitrogen. Polar metabolites were extracted with 1.4 mL of an ice-cold solution of 67.5:7.5:25 (v/v/v) of methanol/chloroform/water.
Samples were centrifuged at 18100 × g for 15 min at 0 °C and the supernatant consisted of intracellular polar metabolites was collected and dried under nitrogen gas stream. The remaining cell pellets were used for protein mass quantification using the Pierce™ BCA Protein Assay Kit (Thermo Scientific™).
Samples from both cell culture medium and cell extracts were reconstituted in 220 µL of 50 mM phosphate buffer (pH 7.4) solution in deuterated water containing 0.05 mM trimethylsilyl propionic-d4-sodium salt (TSP-d4, Cambridge Isotope Laboratories, Inc.) as internal standard used for NMR referencing and quantification. One NMR experiment (pulse sequence: noesygppr1d; Bruker Biospin) was collected for each sample in a 14.1 T (600 MHz for 1H) Bruker Avance Neo NMR. All recorded NMR spectra were imported in Chenomx NMR suite 9.0 (Chenomx NMR suite, v9.0) for the quantification of choline, phosphocholine sn-glycero-phosphocholine (GPC) and betaine. Quantitative data (nmoles or μM) were then normalized to the amount of total protein mass (mg) of each sample. […]

CHKA = CHKA (Homo sapiens, UniProt P35790); experiment: Competitive affinity-based chemoproteomics (UNC0965 matrix), MCF7 lysate; type: binding; set-up: endogenous in cells; host or cells: MCF7 whole cell lysate; settings: 20 μM competitor; for FC vs DMSO (log2 competition), CHKA: MCF7 lysate, n=2; for competition for CHKA binding to affinity matrix: MCF7 lysates
CHKA, sequence (P35790 whole entry): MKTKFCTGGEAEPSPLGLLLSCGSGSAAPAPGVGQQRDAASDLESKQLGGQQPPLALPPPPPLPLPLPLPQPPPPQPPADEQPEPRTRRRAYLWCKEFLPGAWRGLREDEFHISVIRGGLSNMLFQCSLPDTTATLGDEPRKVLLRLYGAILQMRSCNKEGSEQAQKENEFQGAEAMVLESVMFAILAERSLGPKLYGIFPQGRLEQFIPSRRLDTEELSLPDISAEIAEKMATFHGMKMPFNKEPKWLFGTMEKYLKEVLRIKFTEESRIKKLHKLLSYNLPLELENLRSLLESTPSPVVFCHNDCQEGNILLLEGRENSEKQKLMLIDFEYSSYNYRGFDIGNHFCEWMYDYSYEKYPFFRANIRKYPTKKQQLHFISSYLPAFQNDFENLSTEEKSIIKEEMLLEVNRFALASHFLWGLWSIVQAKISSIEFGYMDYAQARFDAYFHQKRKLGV
Description: A-366 and UNC0638 were purchased from Tocris. ARIAD and V-11-07-11 were purchased from Wuxi Apptec. UNC0737 and UNC0965 were synthesised as previously described.[1] Hemicholinium-3 and pyruvate kinase/lactic dehydrogenase enzymes were purchased from Sigma Aldrich. Aqueous and organic solvents were MS-grade and acquired by Sigma Aldrich unless stated otherwise.
MDA-MB-231, MCF7 and HEK293 cells were cultured in DMEM (Gibco, #11965092) supplemented with 10% FBS. K562 were cultured in IMDM (Gibco, #12440053) supplemented with 10% FBS. HepG2 were cultured in MEM (Gibco, #11095080) supplemented with 10 % FBS. […]
cultured in McCoy’s 5A (Sigma, M8403) supplemented with 10 % FBS and 1x GlutaMAX (Gibco, #35050061). Cells were maintained at 37 °C in a humidified 5% CO2 atmosphere. Peripheral blood mononuclear cells (PBMC) were isolated from healthy blood donors by density centrifugation. […]
Chemical Proteomics Drug Pulldown
For lysate generation MCF7 cells were grown until approximately 80% confluency before being pelleted and washed with PBS. Cell pellets were subsequently lysed by addition of Buffer A (50 mM Tris pH 7.5, 0. 8% v/v NP-40, 5% v/v glycerol, 1.5 mM MgCl2, 100 mM NaCl, 25 mM NaF, 1 mM Na3VO4, 1 mM PMSF, 1 mM DTT, 10 μg mL−1 TLCK, 1 μg mL−1 Leupeptin, 1 μg mL−1 Aprotinin, 1 μg mL−1 soy bean trypsin) as previously described.[2]
For each pulldown condition, UNC0965 was coupled to 100 μL of UltraLink Immobilized Streptavidin Plus bead slurry (50% in isopropanol, GE Healthcare) to generate the affinity matrix as previously […]
described.[2] Lysates were precleared with bead slurry (100 μL) for 30 min at 4 °C and then treated with UNC0638 or UNC0737 (20 μM) or DMSO control for 30 min at 4 °C followed by incubation with affinity matrix for 2 h at 4 °C. Affinity matrices were washed with buffer A (5 mL) and proteins eluted with 100 μL of 2x Laemmli sample buffer, 100 mM DTT, in PBS and heating for 10 min at 90 °C.
Eluents (70 µL) were diluted in 0.1 M Tris (pH 7.8) to 200 µL, reduced with 5 mM DTT for 30 min at RT, and alkylated with 20 mM iodoacetamide for 30 min at RT in the dark. […]
Digested samples were analysed by nano-UPLC–MS/MS using a Dionex Ultimate 3000 nano UPLC fitted with an EASY spray column (75 μm × 500 mm, 2 μm particle size, Thermo Scientific), coupled to an Orbitrap Q Exactive instrument. […]
Raw data was processed using MaxQuant[3] version 2.0.1.0 and the reference complete human proteome FASTA file (UniProt, downloaded 05.08.21). Label Free Quantification (LFQ) and Match Between Runs were selected; Cysteine carbamidomethylation was selected as a fixed modification, and methionine oxidation and asparagine deamidation as variable modifications. Default settings for identification and quantification were used. […]

COc1cc2c(NC3CCN(C(C)C)CC3)nc(C3CCCCC3)nc2cc1OCCCN1CCCC1 [UNC0638]
betaine [1]: did not observe changes | intracellular choline levels [1]: not significantly affected | phosphocholine (pCho) formation/levels relative to control [1]: reduction of pCho formation; also recorded: significantly reduced | sn‐glycerophosphocholine (GPC) [1]: not significantly affected | extracellular choline uptake [1]: decrease in extracellular choline uptake | FC vs DMSO (log2 competition), CHKA (CHKA): -2.284 | competition for CHKA binding to affinity matrix (CHKA): shared off‐target

COc1cc2c(N(C)C3CCN(C(C)C)CC3)nc(C3CCCCC3)nc2cc1OCCCN1CCCC1 [UNC0737]
betaine [1]: did not observe changes | intracellular choline levels [1]: not significantly affected | phosphocholine (pCho) formation/levels relative to control [1]: reduction of pCho formation | sn‐glycerophosphocholine (GPC) [1]: not significantly affected | extracellular choline uptake [1]: decrease in extracellular choline uptake | phosphocholine (pCho) formation/levels relative to control ([1]; listed as UN0737): significantly reduced | FC vs DMSO (log2 competition), CHKA (CHKA): -4.09 | competition for CHKA binding to affinity matrix (CHKA): shared off‐target; also recorded: even stronger competition
